Data as given in patent US9718805B2, “Triazole compounds and their use as gamma secretase modulators” (Acturum Life Science AB, priority 2013, dated 2017).

Assays:
[1] = system: Aβ42 formation in HEK cell line stably expressing APP with the Swedish mutation (APPswe); experiment: HEK assay (Aβ42 secreted to cell medium, Meso Scale electrochemiluminescence); format: cell-based; conditions: Homo sapiens, HEK293; HEK cells expressing APPswe; 4-6 hours incubation with test compound; read-out: pIC50 Aβ42 HEK assay (converted)
Protocol: (§1) The level of activity of the compounds on Aβ formation was tested using the following methods:
Compounds were diluted in 100% DMSO and stored at 20° C. prior to use. Human Embryonic Kidney (HEK) cell line stably expressing APP with the Swedish mutation (APPswe) was cultured using Dulbecco's Modified Eagles medium (DMEM) supplied with […] glucose, Na-pyruvate and GlutaMAX, 10% Foetal bovine serum, 100 U/mL penicillin-streptomycin (PEST), 1× non-essential amino acids (NEAA), […] Hepes, 100 μg/mL Zeocine. Cells at about 80% confluence were washed with PBS, detached from culture flasks using 1×Trypsin/EDTA diluted in PBS, re-suspended in cell media and plated in 384-well poly-d-lysine coated cell culture plates at about 10000-15000 cells/well, in 25 μL cell media. Optionally, cryo-preserved cells (frozen and stored at −140° C. in 90% cell media and 10% DMSO) were thawed, washed and plated as above. Next the cells were incubated for 15-24 h at 37° C. and 5% CO2, after which cell medium was changed. Fresh medium containing test compound diluted ×200 from prepared compound plate was added to the cells before further incubation for 4-6 hours at 37° C. and 5% CO2. After incubation with test compound the amount of Aβ peptides, including Aβ42, Aβ40, Aβ39, Aβ38 and Aβ37, secreted to cell medium was analyzed using the electrochemiluminescence assay technology from Meso Scale Discovery Technology, in combination with specific antibodies raised against the different Aβ peptides. Potential cytotoxic effects of the compounds were assayed by measuring the ATP content (ViaLight) from cell lysate.

[2] = system: Aβ42 formation in primary cortical neuronal cells (PCN); experiment: PCN assay (Aβ42 secreted by primary cortical neuronal cells, ELISA); format: cell-based; conditions: mouse primary cortical neuronal cells; 16-20 hours incubation with test compound; read-out: pIC50 Aβ42 PCN assay (converted)
Protocol: as §1
Compounds were diluted in 100% DMSO and stored at 20° C. prior to use. Primary cortical neuronal cells (PCN) were isolated from 16-day mouse embryos and cultured in Ham's F12 media containing 10% Foetal bovine serum, 10 mM Hepes, 2 mM L-glutamine and 100 U/ml Penicillin-Streptomycin. 150000-250000 cells/well, in 200 μl cell media were seeded onto 96-well poly-D-Lysine coated plates. After incubation at 37° C., 5% CO2 for five days, the media was exchanged for fresh medium containing test compound diluted ×100, before further incubation for 16-20 hours at 37° C. and 5% CO2. After incubation with test compound the amount of Aβ42 peptides secreted to cell medium was analyzed using the solid phase sandwich Enzyme-Linked-Immuno-Sorbent Assay (ELISA)-kit from Invitrogen for detection of mouse βAmyloid 1-42. Potential cytotoxic effects of the compounds were assayed by measuring the ATP content (Via Light) from cell lysate.

IC50 [2] [nM]	Compound	IC50 [1] [nM]
15.8	COc1cc(Nc2nc(NCc3ccccc3)n(CC(C)(C)O)n2)ccc1-n1cnc(C)c1 [Example 6, 1-[5-(Benzylamino)-3-{[3-methoxy-4-(4-methyl-1H-imidazol-1-yl)phenyl]amino}1H-1,2,4-triazol-1-yl]-2-methylpropan-2-ol]	20
	COc1cc(Nc2nc(NCC3CC3)n(CC(C)C)n2)ccc1-n1cnc(C)c1 [Example 3, 5-N-(Cyclopropylmethyl)-3-N-[3-methoxy-4-(4-methyl-1H-imidazol-1-yl)phenyl]-1-(2-methylpropyl)-1H-1,2,4-triazole-3,5-diamine]	63.1
158	COc1cc(Nc2nc(NCC3CC3)n(C)n2)ccc1-n1cnc(C)c1 [Example 1, N^5-(Cyclopropylmethyl)-N^3-[3-methoxy-4-(4-methyl-1H-imidazol-1-yl)phenyl]-1-methyl-1H-1,2,4-triazole-3,5-diamine]	79.4
20	COc1cc(Nc2nc(N(C)Cc3ccccc3)n(CC(C)(C)O)n2)ccc1-n1cnc(C)c1 [Example 7, 1-{5-[Benzyl(methyl)amino]-3-{[3-methoxy-4-(4-methyl-1H-imidazol-1-yl)phenyl]amino}-1H-1,2,4-triazol-1-yl}-2-methylpropan-2-ol]	15.8
	COc1cc(Nc2nc(N(C)CC3CC3)n(CC(C)(C)O)n2)ccc1-n1cnc(C)c1 [Example 5, 1-{5-[(Cyclopropylmethyl)(methyl)amino]-3-{[3-methoxy-4-(4-methyl-1H-imidazol-1-yl)-phenyl]amino}-1H-1,2,4-triazol-1-yl}-2-methylpropan-2-ol]	79.4
	COc1cc(Nc2nc(N(CC3CC3)CC3CC3)n(C)n2)ccc1-n1cnc(C)c1 [Example 2, 5-N,5-N-Bis(cyclopropylmethyl)-3-N-[3-methoxy-4-(4-methyl-1H-imidazol-1-yl)phenyl]-1-methyl-1H-1,2,4-triazole-3,5-diamine]	63.1
	COc1cc(Nc2nc(N(C)CC(C)(C)O)n(Cc3ccccc3)n2)ccc1-n1cnc(C)c1 [Example 4, 1-[(1-Benzyl-3-{[3-methoxy-4-(4-methyl-1H-imidazol-1-yl)phenyl]amino}-1H-1,2,4-triazol-5-yl)(methyl)amino]-2-methylpropan-2-ol]	100
